The values below come from patent US5733913A, “6-Aryl pyrido[2,3-d] pyrimidines and naphthyridines for inhibiting protein tyrosine kinase mediated cellular proliferation” (priority 1995, dated 1998).

Format in all cases: biochemical
Assay [1] has as its target T1, human FGF-1 (flg) receptor tyrosine kinase (Homo sapiens, UniProt P11362).
T1 construct: a fragment of DNA that codes for the intracellular tyrosine kinase domain; made in house; host or cells: Sf9 insect cells (baculovirus), cell lysate
Description: FGF receptor tyrosine kinase assay. The settings on record: for pIC50: read-out: Inhibition of Protein Tyrosine Kinases, FGF, IC50; for inhibition at 50 µM: read-out: Inhibition of Protein Tyrosine Kinases, FGF, % Inhibition. The source says: (§1) PDGF and FGF Receptor Tyrosine Kinase Assays
(§2) Full length cDNAs for the mouse PDGF-β and human FGF-1 (flg) receptor tyrosine kinases were obtained from J. Escobedo and prepared as described in J. Biol. Chem., 262:1482-1487 (1991), and PCR primers were designed to amplify a fragment of DNA that codes for the intracellular tyrosine kinase domain. The fragment was melded into a baculovirus vector, cotransfected with AcMNPV DNA, and the recombinant virus isolated. SF9 insect cells were infected with the virus to overexpress the protein, and the cell lysate was used for the assay. […] Briefly, to each well was added 82.5 μL of incubation buffer containing 25 mM Hepes (pH 7.0), 150 mM NaCl, 0.1% Triton X-100, 0.2 mM PMSF, 0.2 mM Na3 VO4, 10 mM MnCl2, and 750 μg/mL of Poly (4:1) glutamate-tyrosine followed by 2.5 μL of inhibitor and 5 μL of enzyme lysate (7.5 μg/μL FGF-TK or 6.0 μg/μL PDGF-TK) to initiate the reaction. Following a 10 minute incubation at 25° C., 10 μL of γ^32 P-ATP (0.4 μCi plus 50 μM ATP) was added to each well and samples were incubated for an additional 10 minutes at 25° C. The reaction was terminated by the addition of 100 μL of 30% trichloroacetic acid (TCA) containing 20 mM sodium pyrophosphate and precipitation of material onto glass fiber filter mats (Wallac). […] Nonspecific activity was defined as radioactivity retained on the filters following incubation of samples with buffer alone (no enzyme). Specific enzymatic activity was defined as total activity (enzyme plus buffer) minus nonspecific activity.

Assay [2] deals with T2, mouse PDGF-β receptor tyrosine kinase (Mus musculus, UniProt P05622).
T2 construct: a fragment of DNA that codes for the intracellular tyrosine kinase domain; made in house; host or cells: Sf9 insect cells (baculovirus), cell lysate
T2 sequence (P05622 599-961 limits assumed): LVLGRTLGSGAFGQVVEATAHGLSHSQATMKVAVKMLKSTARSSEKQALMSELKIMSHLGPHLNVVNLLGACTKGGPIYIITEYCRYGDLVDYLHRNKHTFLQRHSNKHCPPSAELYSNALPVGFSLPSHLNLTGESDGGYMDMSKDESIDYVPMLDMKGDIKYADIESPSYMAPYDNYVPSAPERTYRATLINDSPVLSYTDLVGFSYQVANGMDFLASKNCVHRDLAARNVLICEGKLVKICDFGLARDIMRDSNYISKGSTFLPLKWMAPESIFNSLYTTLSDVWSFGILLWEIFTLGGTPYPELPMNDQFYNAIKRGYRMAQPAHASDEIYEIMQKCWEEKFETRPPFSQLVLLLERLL
Description: PDGF receptor tyrosine kinase assay. The settings on record: for pIC50: read-out: Inhibition of Protein Tyrosine Kinases, PDGF, IC50; for inhibition at 50 µM: read-out: Inhibition of Protein Tyrosine Kinases, PDGF, % Inhibition.
Text: as §1, §2

The target in the next assay is T3, C-src kinase (Homo sapiens, UniProt P12931).
T3 construct: made in house; host or cells: baculovirus-infected insect cells
T3 sequence (P12931 whole entry): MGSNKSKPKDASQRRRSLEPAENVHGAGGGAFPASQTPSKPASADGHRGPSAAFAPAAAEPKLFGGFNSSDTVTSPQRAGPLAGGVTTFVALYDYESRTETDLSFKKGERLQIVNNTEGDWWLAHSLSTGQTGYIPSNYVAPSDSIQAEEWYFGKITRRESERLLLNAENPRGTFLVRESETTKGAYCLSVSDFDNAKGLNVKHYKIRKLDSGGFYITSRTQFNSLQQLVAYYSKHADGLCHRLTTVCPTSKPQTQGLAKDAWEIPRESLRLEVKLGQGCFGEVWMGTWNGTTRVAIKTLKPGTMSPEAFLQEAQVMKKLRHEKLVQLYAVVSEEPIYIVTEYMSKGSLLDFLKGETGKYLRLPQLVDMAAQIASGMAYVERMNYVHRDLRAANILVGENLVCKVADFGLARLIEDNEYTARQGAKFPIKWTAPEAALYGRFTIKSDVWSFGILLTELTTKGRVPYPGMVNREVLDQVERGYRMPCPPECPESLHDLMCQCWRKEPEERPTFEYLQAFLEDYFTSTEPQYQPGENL
In words: C-src kinase assay. The settings on record: for inhibition at 50 µM: read-out: Inhibition of Protein Tyrosine Kinases, C-src, % Inhibition. The method, then:
V-src and C-src Kinase Assays
V-src or C-src kinase is purified from baculovirus infected insect cell lysates using an antipeptide monoclonal antibody directed against the N-terminal 2-17 amino acids. The antibody, covalently linked to 0.65-μm latex beads, is added to a suspension of insect cell lysis buffer comprised of 150 mM NaCl, 50 mM Tris pH 7.5, 1 mM DTT, 1% NP-40, 2 mM EGTA, 1 mM sodium vanadate, 1 mM PMSF, 1 μg/mL each of leupeptin, pepstatin, and aprotinin. […] At the end of the lysate incubation, the beads are rinsed 3 times in lysis buffer, resuspended in lysis buffer containing 10% glycerol, and frozen. These latex beads are thawed, rinsed three times in assay buffer which is comprised of 40 mM tris pH 7.5, 5 mM MgCl2, and suspended in the same buffer. In a Millipore 96-well plate with a 0.65 μm polyvinylidine membrane bottom are added the reaction components: 10-μL v-src or c-src beads, 10 μL of 2.5 mg/mL poly GluTyr substrate, 5 μM ATP containing 0.2 μCi labeled ^32 P-ATP, 5μL DMSO containing inhibitors or as a solvent control, and buffer to make the final volume 125 μL. The reaction is started at room temperature by addition of the ATP and quenched 10 minutes later by the addition of 125 μL of 30% TCA, 0.1M sodium pyrophosphate for 5 minutes on ice. The plate is then filtered and the wells washed with two 250-μL aliquots of 15% TCA, 0.1M pyrophosphate. The filters are punched, counted in a liquid scintillation counter, and the data examined for inhibitory activity in comparison to a known inhibitor such as erbstatin. The method is described more fully in J. Med. Chem., 37:598-609 (1994).

Where [3] appears, read: read-out: Inhibition of Protein Tyrosine Kinases, C-src, IC50.

pIC50: −log10 of the molar value. Read-outs that look alike come from different tables or passages of the source.

T1 sequence (P11362 478-767 limits assumed): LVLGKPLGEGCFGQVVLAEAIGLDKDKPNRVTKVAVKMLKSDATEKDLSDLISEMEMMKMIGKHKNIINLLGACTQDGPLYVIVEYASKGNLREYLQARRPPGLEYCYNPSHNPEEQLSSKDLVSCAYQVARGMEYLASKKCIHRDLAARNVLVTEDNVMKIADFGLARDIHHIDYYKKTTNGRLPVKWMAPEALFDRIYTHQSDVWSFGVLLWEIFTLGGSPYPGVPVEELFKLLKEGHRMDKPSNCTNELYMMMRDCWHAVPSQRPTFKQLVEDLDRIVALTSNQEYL

With `CCN(CC)CCCCNc1ncc2cc(-c3c(Cl)cccc3Cl)c(NC(=S)NCCCN3CCOCC3)nc2n1` [Example 122, 1-[6-(2,6-Dichlorophenyl)-2-(4-diethylamino-butylamino)-pyrido[2,3-d]pyrimidin-7-yl]-3-(3-morpholin-4-yl-propyl)-thiourea], the pIC50 in assay [1] was 6.77; in assay [2], 5.84. As to `Cc1cc(C)c(C)c(-c2cc3cnc(NCCCN4CCN(C)CC4)nc3nc2N)c1C` [Example 120, N^2-[3-(4-Methyl-piperazin-1-yl)-propyl]-6-(2,3,5,6-tetramethyl-phenyl)-pyrido[2,3-d]pyrimidine-2,7-diamine], the pIC50 is 5.49 in assay [1], 4.37 on C-src kinase (setting [3]) and 5.42 in assay [2]. `CC(C)NC(=O)Nc1nc2nc(NCCCN3CCN(C)CC3)ncc2cc1-c1c(Cl)cccc1Cl` [Example 38]: the pIC50 in assay [1] was 7.33; on C-src kinase (setting [3]), 7.72; in assay [2], 6.44.

Turning to `Cc1cc(C)c(C)c(-c2cc3cnc(N)nc3nc2NC(=O)NC(C)(C)C)c1C` [Example 99, 1-[2-Amino-6-(2,3,5,6-tetramethyl-phenyl)-pyrido[2,3-d]pyrimidin-7-yl]-3-tert-butyl-urea], the inhibition at 50 µM at C-src kinase was 17.1%. With `Cc1cc(C)c(C)c(-c2cc3cnc(NCCCN4CCN(C)CC4)nc3nc2NC(=O)NC(C)(C)C)c1C` [Example 121, 1-tert-Butyl-3-{2-[3-(4-methyl-piperazin-1-yl)-propylamino]-6-(2,3,5,6-tetramethyl-phenyl)-pyrido-[2,3-d]pyrimidin-7-yl}-urea], in assay [1], the pIC50 is 6.85. For the same molecule, the inhibition at 50 µM in assay [2] amounted to 21.8%. Turning to `CN1CCN(CCCNc2ncc3cc(-c4c(Cl)cccc4Cl)c(NC4=NCCCO4)nc3n2)CC1` [Example 35, 6-(2,6-Dichlorophenyl)-N^7-(5,6-dihydro-4H-[1,3]oxazin-2-yl)-N^2-[3-(4-methyl-piperazin-1-yl)-propyl]-pyrido[2,3-d]pyrimidine-2,7-diamine], the inhibition at 50 µM in assay [1] is 97.9%. Moreover, the pIC50 in assay [2] was 5.68.

As for `Nc1ncc2cc(-c3c(Br)cccc3Br)c(N)nc2n1` [Example 60, 6-(2,6-Dibromo-phenyl)-pyrido[2,3-d]pyrimidine-2,7-diamine], the pIC50 in assay [1] was 4.89; on C-src kinase, 5.80. As to `CN(C)C=Nc1ncc2cc(-c3c(Cl)cccc3Cl)c(N=CN(C)C)nc2n1` [Example 80, N'-[6-(2,6-Dichlorophenyl)-7-[(dimethylamino)methylene-amino]-pyrido[2,3-d]pyrimidin-2-yl]-N,N-dimethylformamidine], in assay [1], the pIC50 was 4.99. Moreover, the inhibition at 50 µM in assay [2] turned out to be 22.9%. Take `CN1CCN(CCCNc2ncc3cc(-c4c(Cl)cccc4Cl)c(NC(=S)NC(C)(C)C)nc3n2)CC1` [Example 118, 1-tert-Butyl-3-{6-(2,6-dichlorophenyl)-2-[3-(4-methyl-piperazin-1-yl)-propylamino]-pyrido[2,3-d]pyrimidin-7-yl}-thiourea]: the results for the pIC50 in assay [1] and in assay [2] were 6.90 and 5.72, respectively. In the same order, the values of `CN1CCN(CCCNc2ncc3cc(-c4c(Cl)cccc4Cl)c(NC(=O)Nc4cccc5ccccc45)nc3n2)CC1` [Example 50, 1-{6-(2,6-Dichlorophenyl)-2-[3-(4-methyl-piperazin-1-yl)-propylamino]-pyrido[2,3-d]pyrimidin-7-yl}-3-naphthalen-1-yl-urea] are 6.52 and 5.59. As for `CN1CCN(CCCNc2ncc3cc(-c4c(Cl)cccc4Cl)c(NC(=O)NC4CCCCC4)nc3n2)CC1` [Example 37, 1-Cyclohexyl-3-{6-(2,6-dichlorophenyl)-2-[3-(4-methyl-piperazin-1-yl)-propylamino]-pyrido[2,3-d]pyrimidin-7-yl}-urea], the inhibition at 50 µM at C-src kinase was 106%. In the case of `Cc1cc(C)cc(-c2cc3cnc(N)nc3nc2N)c1` [Example 94, 6-(3,5-Dimethyl-phenyl)-pyrido[2,3-d]pyrimidine-2,7-diamine], the negative logarithm of the IC50 (pIC50) in assay [1] was 4.75. For the same molecule, the inhibition at 50 µM in assay [2] is 11.5%. Consider `CCN(CC)C(=O)Nc1nc2nc(NCCCN3CCN(C)CC3)ncc2cc1-c1c(Cl)cccc1Cl` [Example 119, 3-{6-(2,6-Dichlorophenyl)-2-[3-(4-methyl-piperazin-1-yl)-propylamino]-pyrido[2,3-d]pyrimidin-7-yl}-1,1-diethyl-urea], for which the pIC50 in assay [1] is 5.11; in assay [2] it was 4.20.

For `CN1CCN(CCCNc2ncc3cc(-c4c(Cl)cccc4Cl)c(NC(=O)NCc4ccccc4)nc3n2)CC1` [Example 39, 1-Benzyl-3-{6-(2,6-dichlorophenyl)-2-[3-(4-methyl-piperazin-1-yl)-propylamino]-pyrido[2,3-d]pyrimidin-7-yl}-urea], the pIC50 at C-src kinase (setting [3]) is 7.68. The same measure, in the same setting: to `COc1ccc(NC(=O)Nc2nc3nc(NCCCN4CCN(C)CC4)ncc3cc2-c2c(Cl)cccc2Cl)cc1` [Example 41, 1-{6-(2,6-Dichlorophenyl)-2-[3-(4-methyl-piperazin-1-yl)-propylamino]-pyrido[2,3-d]pyrimidin-7-yl}-3-(4-methoxy-phenyl)-urea] belongs 7.07. Regarding `CN1CCN(CCCCNc2ncc3cc(-c4c(Cl)cccc4Cl)c(NC(=O)NC(C)(C)C)nc3n2)CC1` [Example 34, 1-tert-Butyl-3-{6-(2,6-dichlorophenyl)-2-[4-(4-methyl-piperazin-1-yl)-butylamino]-pyrido[2,3-d]pyrimidin-7-yl}-urea], the pIC50 at C-src kinase (setting [3]) is 7.96; in assay [2] it was 6.46. In the same order, the values of `COc1cccc(NC(=O)Nc2nc3nc(NCCCN4CCN(C)CC4)ncc3cc2-c2c(Cl)cccc2Cl)c1` [Example 42, 1-{6-(2,6-Dichlorophenyl)-2-[3-(4-methyl-piperazin-1-yl)-propylamino]-pyrido[2,3-d]pyrimidin-7-yl}-3-(3-methoxy-phenyl)-urea] are 7.49 and 6.20.

Take `Cc1cc(C)c(-c2cc3cnc(N)nc3nc2N)c(C)c1` [Example 96, 6-(2,4,6-Trimethyl-phenyl)-pyrido[2,3-d]pyrimidine-2,7-diamine]: the pIC50 in assay [1] is 5.42; in assay [2], 4.56. In the same order, the values of `C=CCNC(=O)Nc1nc2nc(NCCCN3CCN(C)CC3)ncc2cc1-c1c(Cl)cccc1Cl` [Example 40, 1-Allyl-3-{6-(2,6-dichlorophenyl)-2-[3-(4-methyl-piperazin-1-yl)-propylamino]-pyrido[2,3-d]pyrimidin-7-yl}-urea] are 7.24 and 6.16. Regarding `CC1CCCCN1CCCNc1ncc2cc(-c3c(Cl)cccc3Cl)c(NC(=O)NC(C)(C)C)nc2n1` (stereo not drawn) [Example 32, 1-tert-Butyl-3-{6-(2,6-dichlorophenyl)-2-[3-(2-methyl-piperidin-1-yl)-propylamino]-pyrido[2,3-d]pyrimidin-7-yl}-urea], the pIC50 on C-src kinase (setting [3]) was 5.30; in assay [2] it was 6.38. As to `Nc1ncc2cc(-c3c(Cl)cccc3Br)c(N)nc2n1` [Example 104, 6-(2-Bromo-6-chloro-phenyl)-pyrido[2,3-d]pyrimidine-2,7-diamine], the pIC50 in assay [1] is 5.27; in assay [2], 4.44. Regarding `Nc1ncc2cc(-c3ccncc3)c(N)nc2n1` [Example 109, 6-Pyridin-4-yl-pyrido[2,3-d]pyrimidine-2,7-diamine], the inhibition at 50 µM was 10.3% in assay [1] and 23.6% in assay [2].

As usually defined, the pIC50 is the negative decadic logarithm of the IC50, by convention in mol/L. A word on the inhibition: it is the change of the read-out against control, counted positive when it falls.
